Data as given in ChEMBL document CHEMBL5696441 (Nat Chem Biol, 2011).

Experiments:
[1] = target: Serine/threonine-protein kinase SIK2 (Homo sapiens) (UniProt Q9H0K1); assay: Inhibition of human SNF1LK2 assessed as residual activity at 1 uM using RBER-CHKtide as substrate in presence of 33P-ATP by ProQinase assay relative to control
CYP2C9 = CYP2C9 (Homo sapiens, UniProt P11712); assay: Inhibition of CYP2C9 (unknown origin) at 10 uM relative to control; assay type: ADME
[2] = target: Phosphatidylinositol 4-phosphate 5-kinase type-1 alpha (Homo sapiens) (UniProt Q99755); assay: Inhibition of PIP5K1A (unknown origin) assessed as remaining activity at 1 uM by Kinome scan method relative to control
[3] = target: Calcium/calmodulin-dependent protein kinase type II subunit alpha (Homo sapiens) (UniProt Q9UQM7); assay: Inhibition of human CAMK2A assessed as residual activity at 1 uM using RBER-CHKtide as substrate in presence of 33P-ATP by ProQinase assay relative to control
Calcium/calmodulin-dependent protein kinase type II subunit alpha (Homo sapiens), sequence (Q9UQM7 whole entry): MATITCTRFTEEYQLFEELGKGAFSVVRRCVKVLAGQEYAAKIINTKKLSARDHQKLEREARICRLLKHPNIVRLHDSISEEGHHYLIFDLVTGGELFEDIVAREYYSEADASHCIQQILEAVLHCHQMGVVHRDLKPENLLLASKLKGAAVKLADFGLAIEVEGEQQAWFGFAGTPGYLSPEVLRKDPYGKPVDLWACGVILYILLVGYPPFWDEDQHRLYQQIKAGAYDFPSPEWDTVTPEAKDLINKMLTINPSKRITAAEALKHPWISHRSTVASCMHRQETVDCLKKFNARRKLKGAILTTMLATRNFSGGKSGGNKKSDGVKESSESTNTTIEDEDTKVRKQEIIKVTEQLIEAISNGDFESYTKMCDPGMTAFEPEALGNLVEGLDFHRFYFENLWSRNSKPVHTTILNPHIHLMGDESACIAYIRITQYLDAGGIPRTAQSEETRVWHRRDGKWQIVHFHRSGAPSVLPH

[4] = target: Glycogen synthase kinase-3 alpha (Homo sapiens) (UniProt P49840); assay: Inhibition of GSK3alpha (unknown origin) assessed as remaining activity at 1 uM by Kinome scan method relative to control
[5] = target: Focal adhesion kinase 1 (Homo sapiens) (UniProt Q05397); assay: Inhibition of human FAK (2 to 1052 residues) assessed as residual activity at 1 uM using polyEY as substrate in presence of 33P-ATP by ProQinase assay relative to control
Focal adhesion kinase 1 (Homo sapiens), sequence (Q05397 2-1052 limits assumed): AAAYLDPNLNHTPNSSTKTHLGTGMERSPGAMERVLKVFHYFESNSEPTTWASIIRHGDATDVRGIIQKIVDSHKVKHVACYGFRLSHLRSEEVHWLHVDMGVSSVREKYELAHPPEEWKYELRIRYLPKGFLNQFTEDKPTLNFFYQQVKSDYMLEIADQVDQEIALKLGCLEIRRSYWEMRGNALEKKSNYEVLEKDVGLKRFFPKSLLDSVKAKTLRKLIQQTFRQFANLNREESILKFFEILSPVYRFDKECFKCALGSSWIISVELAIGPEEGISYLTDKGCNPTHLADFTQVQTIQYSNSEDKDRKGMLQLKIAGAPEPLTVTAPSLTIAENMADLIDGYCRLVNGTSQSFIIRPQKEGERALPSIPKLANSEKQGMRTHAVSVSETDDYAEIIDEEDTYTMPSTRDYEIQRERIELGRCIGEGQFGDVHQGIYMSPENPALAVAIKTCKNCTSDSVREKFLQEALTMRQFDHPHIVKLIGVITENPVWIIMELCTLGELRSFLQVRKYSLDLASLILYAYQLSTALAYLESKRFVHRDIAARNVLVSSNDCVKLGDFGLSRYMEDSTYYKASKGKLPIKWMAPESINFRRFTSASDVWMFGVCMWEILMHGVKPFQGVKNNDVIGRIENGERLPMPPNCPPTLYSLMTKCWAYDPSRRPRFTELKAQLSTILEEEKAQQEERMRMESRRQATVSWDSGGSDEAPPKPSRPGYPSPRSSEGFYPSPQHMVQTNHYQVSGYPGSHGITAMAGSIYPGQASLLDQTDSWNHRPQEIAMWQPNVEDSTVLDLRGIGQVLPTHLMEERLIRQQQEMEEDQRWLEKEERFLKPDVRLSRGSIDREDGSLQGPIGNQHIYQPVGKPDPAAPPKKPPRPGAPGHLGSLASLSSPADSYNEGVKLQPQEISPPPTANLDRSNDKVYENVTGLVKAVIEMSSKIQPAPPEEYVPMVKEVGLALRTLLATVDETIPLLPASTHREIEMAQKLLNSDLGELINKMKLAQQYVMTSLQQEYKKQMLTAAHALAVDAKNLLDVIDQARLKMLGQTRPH

[6] = target: Tyrosine-protein kinase Mer (Homo sapiens) (UniProt Q12866); assay: Inhibition of MERTK (unknown origin) assessed as remaining activity at 1 uM by Kinome scan method relative to control
[7] = target: Serine/threonine-protein kinase PLK2 (Homo sapiens) (UniProt Q9NYY3); assay: Inhibition of human SNK assessed as residual activity at 1 uM using RBER-GSK3(14-27) as substrate in presence of 33P-ATP by ProQinase assay relative to control
[8] = target: Serine/threonine-protein kinase ULK2 (Homo sapiens) (UniProt Q8IYT8); assay: Inhibition of ULK2 (unknown origin) assessed as remaining activity at 1 uM by Kinome scan method relative to control
Serine/threonine-protein kinase ULK2 (Homo sapiens), sequence (Q8IYT8 whole entry): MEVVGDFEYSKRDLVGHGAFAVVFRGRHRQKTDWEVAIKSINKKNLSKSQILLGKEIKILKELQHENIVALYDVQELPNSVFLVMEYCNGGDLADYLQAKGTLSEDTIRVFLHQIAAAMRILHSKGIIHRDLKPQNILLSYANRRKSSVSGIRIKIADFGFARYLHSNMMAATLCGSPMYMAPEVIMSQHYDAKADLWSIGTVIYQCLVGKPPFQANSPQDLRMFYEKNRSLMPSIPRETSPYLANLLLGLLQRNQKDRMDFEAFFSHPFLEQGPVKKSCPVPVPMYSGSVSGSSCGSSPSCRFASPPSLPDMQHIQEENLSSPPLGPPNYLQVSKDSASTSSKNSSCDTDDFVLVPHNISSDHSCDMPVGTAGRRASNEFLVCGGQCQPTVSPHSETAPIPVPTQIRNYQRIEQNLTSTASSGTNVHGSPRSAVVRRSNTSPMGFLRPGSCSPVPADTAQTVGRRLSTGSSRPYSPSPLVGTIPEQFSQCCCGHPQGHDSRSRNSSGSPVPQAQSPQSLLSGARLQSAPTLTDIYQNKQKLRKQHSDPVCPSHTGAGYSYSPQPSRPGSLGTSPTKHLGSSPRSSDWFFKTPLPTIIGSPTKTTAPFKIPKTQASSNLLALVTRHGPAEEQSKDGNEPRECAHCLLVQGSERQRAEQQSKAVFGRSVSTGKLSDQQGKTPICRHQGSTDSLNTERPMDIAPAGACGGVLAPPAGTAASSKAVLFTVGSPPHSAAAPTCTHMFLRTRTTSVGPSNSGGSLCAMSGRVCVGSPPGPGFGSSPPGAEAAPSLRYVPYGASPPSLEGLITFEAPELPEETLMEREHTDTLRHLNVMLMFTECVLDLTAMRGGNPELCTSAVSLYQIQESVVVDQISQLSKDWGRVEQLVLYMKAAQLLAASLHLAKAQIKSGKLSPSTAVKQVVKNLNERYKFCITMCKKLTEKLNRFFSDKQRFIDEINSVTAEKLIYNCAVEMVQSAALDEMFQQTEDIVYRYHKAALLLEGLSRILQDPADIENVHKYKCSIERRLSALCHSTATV

[9] = target: Mitogen-activated protein kinase 10 (Homo sapiens) (UniProt P53779); assay: Inhibition of human JNK3 assessed as residual activity at 1 uM using ATF2 as substrate in presence of 33P-ATP by ProQinase assay relative to control
[10] = target: High affinity nerve growth factor receptor (Homo sapiens) (UniProt P04629); assay: Inhibition of human TRKA assessed as residual activity at 1 uM using PolyEY as substrate in presence of 33P-ATP by ProQinase assay relative to control
[11] = target: cAMP-dependent protein kinase catalytic subunit PRKX (Homo sapiens) (UniProt P51817); assay: Inhibition of PRKX (unknown origin) assessed as remaining activity at 1 uM by Kinome scan method relative to control
cAMP-dependent protein kinase catalytic subunit PRKX (Homo sapiens), sequence (P51817 whole entry): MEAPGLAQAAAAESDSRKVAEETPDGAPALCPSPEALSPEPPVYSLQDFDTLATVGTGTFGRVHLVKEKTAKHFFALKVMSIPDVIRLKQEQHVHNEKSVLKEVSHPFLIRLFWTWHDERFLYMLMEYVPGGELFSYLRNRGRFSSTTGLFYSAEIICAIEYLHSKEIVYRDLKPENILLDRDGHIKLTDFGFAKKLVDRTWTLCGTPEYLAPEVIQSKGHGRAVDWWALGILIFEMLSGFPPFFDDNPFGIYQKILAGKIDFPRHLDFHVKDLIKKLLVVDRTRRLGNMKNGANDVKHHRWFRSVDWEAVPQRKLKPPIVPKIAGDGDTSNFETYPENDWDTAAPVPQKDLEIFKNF

[12] = target: Mitogen-activated protein kinase kinase kinase 9 (Homo sapiens) (UniProt P80192); assay: Inhibition of MLK1 (unknown origin) assessed as remaining activity at 1 uM by Kinome scan method relative to control
[13] = target: G protein-coupled receptor kinase 6 (Homo sapiens) (UniProt P43250); assay: Inhibition of human GRK6 assessed as residual activity at 1 uM using casein as substrate in presence of 33P-ATP by ProQinase assay relative to control
G protein-coupled receptor kinase 6 (Homo sapiens), sequence (P43250 whole entry, looked up): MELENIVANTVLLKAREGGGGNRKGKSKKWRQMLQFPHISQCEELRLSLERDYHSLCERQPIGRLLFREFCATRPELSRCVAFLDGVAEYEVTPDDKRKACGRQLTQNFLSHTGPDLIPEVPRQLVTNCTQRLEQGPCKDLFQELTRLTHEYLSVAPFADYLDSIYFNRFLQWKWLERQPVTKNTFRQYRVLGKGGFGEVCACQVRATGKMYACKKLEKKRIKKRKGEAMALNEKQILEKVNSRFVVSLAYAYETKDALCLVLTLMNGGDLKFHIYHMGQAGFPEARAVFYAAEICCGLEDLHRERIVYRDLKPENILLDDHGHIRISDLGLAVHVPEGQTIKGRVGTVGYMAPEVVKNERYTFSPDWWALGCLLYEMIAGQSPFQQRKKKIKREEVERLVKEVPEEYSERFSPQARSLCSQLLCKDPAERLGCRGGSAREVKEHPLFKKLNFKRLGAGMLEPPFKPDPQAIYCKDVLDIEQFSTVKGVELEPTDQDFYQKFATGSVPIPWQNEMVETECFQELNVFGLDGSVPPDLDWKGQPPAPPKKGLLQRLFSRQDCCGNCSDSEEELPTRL

[14] = target: Dual specificity tyrosine-phosphorylation-regulated kinase 1B (Homo sapiens) (UniProt Q9Y463); assay: Inhibition of DYRK1B (unknown origin) assessed as remaining activity at 1 uM by Kinome scan method relative to control
Dual specificity tyrosine-phosphorylation-regulated kinase 1B (Homo sapiens), sequence (Q9Y463 whole entry, looked up): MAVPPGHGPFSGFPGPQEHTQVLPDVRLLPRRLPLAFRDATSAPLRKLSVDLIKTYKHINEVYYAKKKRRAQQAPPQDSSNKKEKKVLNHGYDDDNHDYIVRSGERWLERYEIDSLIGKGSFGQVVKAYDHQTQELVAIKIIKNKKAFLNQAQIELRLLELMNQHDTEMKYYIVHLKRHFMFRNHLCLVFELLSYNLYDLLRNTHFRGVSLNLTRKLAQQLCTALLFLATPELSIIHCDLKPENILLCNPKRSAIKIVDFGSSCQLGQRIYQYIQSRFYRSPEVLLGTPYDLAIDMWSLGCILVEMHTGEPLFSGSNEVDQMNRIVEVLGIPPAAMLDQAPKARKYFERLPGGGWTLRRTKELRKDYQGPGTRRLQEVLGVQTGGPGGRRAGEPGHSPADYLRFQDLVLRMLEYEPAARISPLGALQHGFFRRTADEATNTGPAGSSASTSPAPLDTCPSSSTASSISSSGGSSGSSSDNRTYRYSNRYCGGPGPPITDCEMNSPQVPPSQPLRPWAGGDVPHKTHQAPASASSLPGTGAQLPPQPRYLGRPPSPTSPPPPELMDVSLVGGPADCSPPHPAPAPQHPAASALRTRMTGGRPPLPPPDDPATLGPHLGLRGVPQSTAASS

[15] = target: Mitogen-activated protein kinase 11 (Homo sapiens) (UniProt Q15759); assay: Inhibition of human P38beta assessed as residual activity at 1 uM using ATF2 as substrate in presence of 33P-ATP by ProQinase assay relative to control
[16] = target: T1, Myotonin-protein kinase (Homo sapiens) (UniProt Q09013); assay: Inhibition of human DMPK assessed as residual activity at 1 uM using RBER-CHKtide as substrate in presence of 33P-ATP by ProQinase assay relative to control
T1 sequence (whole entry): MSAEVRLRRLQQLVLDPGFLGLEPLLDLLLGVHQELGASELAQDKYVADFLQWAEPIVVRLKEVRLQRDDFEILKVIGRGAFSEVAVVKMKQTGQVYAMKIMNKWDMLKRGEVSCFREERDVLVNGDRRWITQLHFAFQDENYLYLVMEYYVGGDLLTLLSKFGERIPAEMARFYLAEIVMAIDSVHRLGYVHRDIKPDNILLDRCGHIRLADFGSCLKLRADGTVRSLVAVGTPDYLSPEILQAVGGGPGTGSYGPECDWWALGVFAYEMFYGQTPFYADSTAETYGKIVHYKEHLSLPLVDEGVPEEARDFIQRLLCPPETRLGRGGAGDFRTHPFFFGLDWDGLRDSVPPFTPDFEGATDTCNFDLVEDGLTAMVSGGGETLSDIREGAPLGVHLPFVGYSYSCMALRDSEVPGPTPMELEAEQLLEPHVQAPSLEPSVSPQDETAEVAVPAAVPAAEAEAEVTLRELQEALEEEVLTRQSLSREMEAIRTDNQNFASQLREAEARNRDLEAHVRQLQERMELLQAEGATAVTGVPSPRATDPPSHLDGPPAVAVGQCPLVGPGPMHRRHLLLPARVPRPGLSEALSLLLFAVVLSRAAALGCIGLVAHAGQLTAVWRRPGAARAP

Serine/threonine-protein kinase SIK2 (Homo sapiens), sequence (Q9H0K1 whole entry, looked up): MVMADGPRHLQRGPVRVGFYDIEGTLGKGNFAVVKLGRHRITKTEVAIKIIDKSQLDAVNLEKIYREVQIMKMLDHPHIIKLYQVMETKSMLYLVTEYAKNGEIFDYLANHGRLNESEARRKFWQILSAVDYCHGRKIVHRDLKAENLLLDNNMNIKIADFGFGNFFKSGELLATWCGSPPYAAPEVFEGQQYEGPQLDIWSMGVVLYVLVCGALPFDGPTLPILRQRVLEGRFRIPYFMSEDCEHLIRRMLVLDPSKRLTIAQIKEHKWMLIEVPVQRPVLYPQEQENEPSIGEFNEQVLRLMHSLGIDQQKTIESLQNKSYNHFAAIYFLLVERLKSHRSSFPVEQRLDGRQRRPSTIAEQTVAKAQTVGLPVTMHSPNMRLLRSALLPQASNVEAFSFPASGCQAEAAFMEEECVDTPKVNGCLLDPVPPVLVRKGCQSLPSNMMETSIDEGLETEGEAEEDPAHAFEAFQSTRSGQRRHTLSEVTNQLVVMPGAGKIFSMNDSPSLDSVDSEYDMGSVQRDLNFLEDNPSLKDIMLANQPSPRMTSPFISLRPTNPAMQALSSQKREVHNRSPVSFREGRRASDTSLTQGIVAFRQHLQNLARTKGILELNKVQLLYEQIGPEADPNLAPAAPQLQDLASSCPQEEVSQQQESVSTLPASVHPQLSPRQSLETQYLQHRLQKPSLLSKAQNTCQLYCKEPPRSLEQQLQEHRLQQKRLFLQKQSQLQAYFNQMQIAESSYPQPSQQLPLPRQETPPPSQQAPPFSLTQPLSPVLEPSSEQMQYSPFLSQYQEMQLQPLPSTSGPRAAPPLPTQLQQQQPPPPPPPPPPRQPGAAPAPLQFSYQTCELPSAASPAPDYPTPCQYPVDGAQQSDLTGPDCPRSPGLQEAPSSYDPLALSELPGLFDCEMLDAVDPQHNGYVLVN

`O=C1c2ccc(Nc3ccc(F)cc3F)cc2CCc2ccc(OC[C@H](O)CO)cc21` [Skepinone-L] showed an Activity [1] of 86%, an inhibition at 10 µM (CYP2C9) of 65% and an Activity [2] of 100%. It also gave an Activity [3] of 83%, an Activity [4] of 100% and an Activity [5] of 113%. The Activity [6] was 92%, the Activity [7] was 103% and the Activity [8] was 100%. It also gave an Activity [9] of 33%, an Activity [10] of 111% and an Activity [11] of 89%. It also gave an Activity [12] of 100%, an Activity [13] of 82% and an Activity [14] of 82%. It also gave an Activity [15] of 3% and an Activity [16] of 99%.
